Consider three compounds from patent US12673915B2, “Precursor compound of hexahydro-beta-acid component compound, feed composition and use thereof” (WISORIG TECHNOLOGIES PTE. LIMITED, priority 2020, dated 2026).

The series is described as follows: Long-term stability in feeds at room temperature (25° C.±2° C., RH 60%±10%; HPLC). The class given is physicochemical. To be noted: for stability / content in feeds at room temperature (in words): during the testing period. The source says:
Feeds: ZUSF's premixed feed (A mixture of crushed Feed A and crushed Feed B at a weight ratio of 2:1, wherein Feed A was a 5.33% multi-premixed feed for piglets from ZUSF's Hao-Ru-Zhen-Jing, and B was a 2.67% multi-premixed feed for piglets from ZUSF's Hao-Ru-Zhen-Jing); creep feed for piglets from CP FEED; INSIGHTER's feed for broiler; 4% premixed feed from GUANGDONG CO-POWER.
Preparation of a sample of 1% premix of Ingredient: 1 g of an ingredient was respectively weighed out and evenly mixed with 99 g of corncob meal in a mixer to give a sample of 1% premix of an ingredient.
Preparation of a sample of 500 ppm feed of an ingredient: The sample of 1% premix of an ingredient was diluted step by step using the ZUSF's remixed feed to 5000 ppm and 500 ppm to give the sample of 500 ppm feed of an ingredient for later testing.
Preparation of a sample of 100 ppm feed of an ingredient: sample of 1% premix of an ingredient was diluted step by step using the creep feed for piglets from CP FEED to 1000 ppm and then 100 ppm to give the sample of 100 ppm feed of an ingredient for later testing.
Preparation of a sample of 100 ppm feed of an ingredient: The sample of 1% premix of an ingredient was diluted step by step using the INSIGHTER's feed for broiler to 1000 ppm and 100 ppm to give the sample of 100 ppm feed of an ingredient for later testing.
Preparation of a sample of 2000 ppm feed of an ingredient: The sample of 1% premix of an ingredient was diluted step by step using the 4% premixed feed from GUANGDONG CO-POWER to 5000 ppm and 2000 ppm to give the sample of 2000 ppm feed of an ingredient for later testing.
Method: Three replications of each feed sample were tested at the condition of 25° C.±2° C. and RH 60%±10%, wherein the replications of each feed sample were sampled in parallel for HPLC analysis on day 5, day 10, day 15, day 30, day 60, and day 90.
25.0 mg of an ingredient was accurately weighed out and dissolved in an appropriate amount of methanol or n-hexane by ultrasonication. The solution was then transferred to a volumetric flask and diluted to 50 mL to give a 500 ppm (by wt.) stock solution. The samples from the stock solution were diluted with methanol or n-hexane respectively to a concentration of 10 ppm, 25 ppm, 50 ppm, 100 ppm, and 250 ppm of work solution, and then the working solutions were filtered by 0.22 μm organic membranes. Between the concentration of a sample and the response value of HPLC peak area thereof, the linearity was adjusted and detected to give a standard curve.
5.0000 g of the samples sampled at different time intervals were respectively accurately weighed out, and dissolved in 25 mL of methanol or n-hexane by ultrasonication for 10 minutes. The resulting solutions were filtered by organic membranes and then analyzed by HPLC.
• Equipment: Waters e2695 with PDA detector. • Mobile phase: 0.02% phosphoric acid:methanol=5:95 (v:v). • Column: Symmetry Cis column (Waters; 250 mm×4.6 mm, 5 μm). • Wavelength: 235 nm. • Temperature of the Column: 25° C. • Injection volume: 10 μL. • Flow rate: 1 mL/min. Normal Phase Chromatography: • Equipment: Shimadzu LC-14C/SPD-15C. • Column: SuperSil NH2 column ([…]; 250 mm×4.6 mm). • Mobile phase: n-hexane:isopropanol=60:40 (v:v). • Wavelength: 235 nm. • Temperature of the Column: 25° C. • Injection volume: 20 μL. • Flow rate: 1 mL/min. 3: Results

Where [1] appears, read: 100 ppm in INSIGHTER's broiler feed, Day 5.
Where [2] appears, read: 100 ppm in INSIGHTER's broiler feed, Day 15.
The mark [3] stands for this setting: 100 ppm in INSIGHTER's broiler feed, Day 30.
Where [4] appears, read: 100 ppm in INSIGHTER's broiler feed, Day 60.
The mark [5] stands for this setting: 100 ppm in creep feed for piglets from CP FEED, Day 5.
The mark [6] stands for this setting: 100 ppm in creep feed for piglets from CP FEED, Day 15.
Setting [7] is: 100 ppm in creep feed for piglets from CP FEED, Day 30.
Where [8] appears, read: 100 ppm in creep feed for piglets from CP FEED, Day 60.
[9] abbreviates: 100 ppm in creep feed for piglets from CP FEED, Day 90.
Setting [10] is: 500 ppm in ZUSF's premixed feed, Day 5.
Setting [11] is: 500 ppm in ZUSF's premixed feed, Day 15.
The mark [12] stands for this setting: 500 ppm in ZUSF's premixed feed, Day 30.
[13] abbreviates: 500 ppm in ZUSF's premixed feed, Day 60.
[14] abbreviates: 500 ppm in ZUSF's premixed feed, Day 90.

In the case of `CC(=O)OC1=C(CCC(C)C)C(=O)C(CCC(C)C)(CCC(C)C)C(O)=C1C(=O)C(C)C` [hexahydro-colupulone mono-acetate, Hexahydro-Colupulone Mono-Acetate], the “stability / content in feeds at room temperature (in words)” value is recorded as “relatively poor in some of the feeds”. For the same compound, the “Residual amount of active ingredient” value under setting [1] was determined as 94.93%. Moreover, the “Residual amount of active ingredient” value under setting [2] is 81.77%. In addition, under setting [3], the “Residual amount of active ingredient” value came to 72.30%. Moreover, under setting [4], the “Residual amount of active ingredient” value turned out to be 71.97%. For the same compound, the “Residual amount of active ingredient” value under setting [5] is listed as 97.69%. Moreover, the “Residual amount of active ingredient” value under setting [6] was determined as 96.27%. The “Residual amount of active ingredient” value under setting [7] is listed as 96.22%. Also, under setting [8], the “Residual amount of active ingredient” value came out at 96.16%. Further, the “Residual amount of active ingredient” value under setting [9] came to 95.08%. Also, under setting [10], the “Residual amount of active ingredient” value was determined as 96.65%. Also, the “Residual amount of active ingredient” value under setting [11] was 96.65%. Under setting [12], the “Residual amount of active ingredient” value is 96.84%. Also, the “Residual amount of active ingredient” value under setting [13] was 95.23%. Also, the “Residual amount of active ingredient” value under setting [14] was found to be 85.29%.

In the case of `CCCC(=O)OC1=C(CCC(C)C)C(=O)C(CCC(C)C)(CCC(C)C)C(O)=C1C(=O)C(C)C` [hexahydro-colupulone mono-butyrate], the “Residual amount of active ingredient” value is 99.00% under setting [1]; 98.79% under setting [2]; 98.39% under setting [3]; 98.11% under setting [4]; 98.19% under setting [5]; 96.62% under setting [6]. The “Residual amount of active ingredient” value under setting [7] is reported as 95.70%; the “Residual amount of active ingredient” value under setting [8] came to 95.47%; the “Residual amount of active ingredient” value under setting [9] is reported as 95.77%; the “Residual amount of active ingredient” value under setting [10] was determined as 100.31%; the “Residual amount of active ingredient” value under setting [11] was 98.23%; the “Residual amount of active ingredient” value under setting [12] worked out at 96.01%. In addition, the “Residual amount of active ingredient” value worked out at 96.13% under setting [13]; 95.29% under setting [14]; 98.62% (2000 ppm in 4% premixed feed from GUANGDONG CO-POWER, Day 5); 95.56% (2000 ppm in 4% premixed feed from GUANGDONG CO-POWER, Day 15); 95.48% (2000 ppm in 4% premixed feed from GUANGDONG CO-POWER, Day 30); 96.34% (2000 ppm in 4% premixed feed from GUANGDONG CO-POWER, Day 60). Moreover, the “Residual amount of active ingredient” value (2000 ppm in 4% premixed feed from GUANGDONG CO-POWER, Day 90) is given as 95.41%.

Take `CC(C)CCC1=C(O)C(C(=O)C(C)C)=C(O)C(CCC(C)C)(CCC(C)C)C1=O` [hexahydro-colupulone, reference compound]: the “stability / content in feeds at room temperature (in words)” value is listed as “decreased substantially”. Further, the “Residual amount of active ingredient” value under setting [5] was determined as 98.28%. In addition, the “Residual amount of active ingredient” value under setting [6] is on record as 96.93%. The “Residual amount of active ingredient” value under setting [7] is given as 93.07%. In addition, the “Residual amount of active ingredient” value under setting [8] came out at 77.54%. Moreover, the “Residual amount of active ingredient” value under setting [9] was 68.28%.
